The values that follow are results of earlier work, collected in patent publication US20210186070A1, “STEVIA EXTRACT CONTAINING SELECTED STEVIOL GLYCOSIDES AS FLAVOR, SALTY AND SWEETNESS PROFILE MODIFIER” (PureCircle USA Inc., priority 2013, published 2021).

SMILES strings stand for the structures.

As to `C=C1C[C@@]23CC[C@H]4[C@@](C)(CCC[C@@]4(C)C(=O)O[C@@H]4O[C@H](CO)[C@@H](O)[C@H](O)[C@H]4O)[C@@H]2CC[C@]1(O[C@@H]1O[C@H](CO)[C@@H](O)[C@H](O[C@@H]2O[C@H](CO)[C@@H](O)[C@H](O)[C@H]2O)[C@H]1O[C@@H]1O[C@H](CO)[C@@H](O)[C@H](O)[C@H]1O)C3` [Rebaudioside A], the “sweetness potency, times higher than sucrose” value is on record as “around 300 times”.
